Some results are limits rather than exact numbers.

Results on 15 compounds are retold here after patent US20160101188A1, “NOVEL NANOCARRIER DELIVERED CANCER CHEMOTHERAPEUTIC AGENTS” (UNIVERSITY OF CINCINNATI, priority 2013, published 2016).

One assay has as its system MCF7 (breast cancer) cells. As to the kind of experiment: MTT cytotoxicity assay in MCF7 breast cancer cells. The class given is cell-based. Conditions: 65 hours incubation, read-out: IC50, viability of MCF7 cells from the MTT assay. How it is done:
The cyctoxicity of compounds was determined in MCF 7 (breast cancer) cells.
MCF7 cells were grown in RPMI 1640 media with 10 nM estrogen and 1 mM insulin. Cells were tyripsinized and resuspended at a density of 2.2×10^4 cells per mL. 500 μL of this suspension was added to each well in a 24 well plate. The plates were incubated at 37° C. and 5% CO2 atmosphere overnight. The media was changed, and plates were dosed in triplicate with compound dissolved in DMSO. Cells were dosed not to exceed 0.5% DMSO in solution. Cells were dosed to a final concentration of 100, 50, 25, 12.5, and 6.25 μM of compound. 5-Flurouracil was used as a positive control and dosed in the same manner. Plates were incubated for 65 hours prior to the addition of MTT solution. 500 μL of a 193 μg/mL MTT and media solution was added to each well. Plates were incubated for 3 hours. The MTT solution was removed and 500 μL of DMSO was added to each well. Cells were imaged using GS 800 Bio Rad scanner and Quality One Software. IC50 curves were determined by plotting viability verses compound concentration. Kaleidagraph software was used to calculate the R value for each logarithmic curve fitting.
Background: Tetrazolium assays rely on reduction of a dye to a coloured formazan, in cell work by metabolically active cells.
As usually defined, the IC50 is the concentration that gives 50% inhibition. For the compound `COCC#Cc1ccc(C(OCc2cn([C@H]3C[C@H](O)[C@@H](CO)O3)c(=O)[nH]c2=O)C(C)(C)C)c([N+](=O)[O-])c1` (stereo partly drawn) [VAL-1-48, 5-[1-(4-{3-methoxy}proyn-1yl-2-nitrophenyl)-2,2-(dimethyl)-1-propoxymethyl]-2′-deoxyuridine], the IC50 was determined as 74 ± 7 µM.

For `CC(C)(C)C(OCc1cn([C@H]2C[C@H](O)[C@@H](CO)O2)c(=O)[nH]c1=O)c1c([N+](=O)[O-])cccc1[N+](=O)[O-]` (stereo partly drawn) [MPB-1-55, 5-[1-(2,6-dinitrophenyl)-2,2-(dimethyl)propoxymethyl]-2′-deoxyuridine], the IC50 is 96 µM. The same measure, in the same setting: under `O=c1[nH]c(=O)n([C@H]2C[C@H](O)[C@@H](CO)O2)cc1COC(c1ccccc1)c1ccccc1[N+](=O)[O-]` (stereo partly drawn) [KB-1-85, 5-[{(2-nitrophenyl)phenyl}methoxymethyl]-2′-deoxyundine] stands 50 µM; under `CC(C)(C)CC(OCc1c[nH]c(=O)[nH]c1=O)c1ccccc1` (stereo not drawn) [SL-1-7, 5-[1-phenyl-3,3-(dimethyl)butoxymethyl]uracil], 37 µM. Still for that read-out and setting: for `O=c1[nH]c(=O)n([C@H]2C[C@H](O)[C@@H](CO)O2)cc1COC(c1ccccc1)c1c([N+](=O)[O-])cccc1[N+](=O)[O-]` (stereo partly drawn) [TZ-1-13F3, 5-[{(2,6-dinitrophenyl)phenyl}methoxymethyl]-2′-deoxyuridine] the value was 44 µM; for `C#Cc1ccc(C(OCc2cn([C@H]3C[C@H](O)[C@@H](CO)O3)c(=O)[nH]c2=O)C(C)(C)C)c([N+](=O)[O-])c1` (stereo partly drawn) [VAL-1-50, 5-[1-(4-acetylenyl-2-nitrophenyl)-2,2-(dimethyl)propoxymethyl]-2′-deoxyuridine], 89 ± 14 µM; for `O=c1[nH]c(=O)n([C@H]2C[C@H](O)[C@@H](CO)O2)cc1COC(c1ccccc1)C1CCCCC1` (stereo partly drawn) [PRW-1-13, 5-[1-(phenyl)-1-(cyclohexyl)methoxymethyl]-2′-deoxyundine], 93 µM. For the compound `CC(C)(C)C(OCc1cn([C@H]2C[C@H](O)[C@@H](CO)O2)c(=O)[nH]c1=O)c1ccccc1CBr` (stereo partly drawn) [KB-1-135, 5-[1-(2-bromomethyl)phenyl-2,2-(dimethyl)propoxymethyl]-2′-deoxyuridine], the IC50 is 72 µM. `CC(C)(C)C(OCc1c[nH]c(=O)[nH]c1=O)c1ccccc1` (stereo not drawn) [KB-1-23, 5-[1-phenyl-2,2-(dimethyl)propoxymethyl]uracil]: the IC50 was 59 µM. As to `COc1cccc(C(OCc2cn([C@H]3C[C@H](O)[C@@H](CO)O3)c(=O)[nH]c2=O)C(C)(C)C)c1` (stereo partly drawn) [SS-1-11, 5-[1-(3-methoxyphenyl)-2,2-(dimethyl)propoxymethyl]-2′-deoxyundine], the IC50 amounted to 66 µM. On the same count and under the same terms, under `CC(C)(C)C(OCc1cn([C@H]2C[C@H](O)[C@@H](CO)O2)c(=O)[nH]c1=O)c1ccc(C#CCOc2ccc3ccc(=O)oc3c2)cc1[N+](=O)[O-]` (stereo partly drawn) [MPB-1-41, 5-[1-(4-{3-(7-coumarin)oxy}proyn-1-yl-2-nitrophenyl)-2,2-(dimethyl)propoxymethyl]-2′-deoxyuridine] stands 16 ± 3 µM. Same read-out and setting: for `CC(C)(C)CC(OCc1cn([C@H]2C[C@H](O)[C@@H](CO)O2)c(=O)[nH]c1=O)c1ccccc1[N+](=O)[O-]` (stereo partly drawn) [KB-1-91, 5-[1-(2-nitrophenyl)-3,3-(dimethyl)butoxymethyl]-2′-deoxyuridine] the value was 62 µM. Same read-out and setting: under `COc1ccc(C(OCc2cn([C@H]3C[C@H](O)[C@@H](CO)O3)c(=O)[nH]c2=O)C(C)(C)C)cc1` (stereo partly drawn) [KB-1-55, 5-[1-(4-methoxyphenyl)-2,2-(dimethyl)propoxymethyl]-2′-deoxyuridine] stands 183 µM.

The assay is the same for the next values; noted with them: Homo sapiens, MCF7, 65 h, 65 hours incubation, read-out: IC50, viability of MCF7 cells from the MTT assay.
`CC(C)COC(c1ccccc1)c1cn([C@H]2C[C@H](O)[C@@H](CO)O2)c(=O)[nH]c1=O` (stereo partly drawn) [MPB-1-25, 5-[1-(phenyl)-2-(methyl)-1-propoxymethyl]-2′-deoxyuridine]: the IC50 is above 150 µM. Regarding `CC(OCc1cn([C@H]2C[C@H](O)[C@@H](CO)O2)c(=O)[nH]c1=O)c1ccccc1[N+](=O)[O-]` (stereo partly drawn) [VAL-1-25, 5-[1-(2-nitrophenyl)ethoxymethyl]-2′-deoxyuridine], the IC50 is around 170 µM.
